The values that follow come from article PMC5071162 (ACS chemical neuroscience, 2016).

Read-outs that look alike come from different tables or passages of the source.

The EC50 is the concentration needed to bring the measured effect to its halfway point.

In one series the target is human GPR88 (Homo sapiens, UniProt Q9GZN0). The series is described as follows: Lance cAMP assay using stable PPLS-HA-GPR88 CHO cells. The class given is cell-based.
Another series relates to P-glycoprotein. Conditions: reported; cited from earlier work.
Another series deals with GPR88. Conditions: HTRF cAMP assay; ref 13 (Bi et al.); cited from earlier work. Background: TR-FRET usually uses a lanthanide donor and a delayed reading to cut background.

human GPR88, sequence (Q9GZN0 whole entry): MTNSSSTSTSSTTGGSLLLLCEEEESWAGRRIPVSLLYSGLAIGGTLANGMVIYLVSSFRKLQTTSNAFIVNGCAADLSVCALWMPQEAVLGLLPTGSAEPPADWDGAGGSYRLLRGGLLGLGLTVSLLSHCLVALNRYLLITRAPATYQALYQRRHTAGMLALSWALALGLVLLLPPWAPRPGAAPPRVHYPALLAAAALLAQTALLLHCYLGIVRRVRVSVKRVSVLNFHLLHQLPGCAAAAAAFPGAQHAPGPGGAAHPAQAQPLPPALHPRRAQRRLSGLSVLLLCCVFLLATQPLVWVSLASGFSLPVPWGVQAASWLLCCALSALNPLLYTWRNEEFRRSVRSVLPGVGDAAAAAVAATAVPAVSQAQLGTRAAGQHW

Turning to `CC[C@H](C)[C@H](N)CN(C(=O)[C@@H]1C[C@H]1c1ccccn1)c1ccc(-c2ccc(OC(C)C)cc2)cc1` (relative stereo) [5m, (1R*,2R*)-2-(Pyridin-2-yl)cyclopropanecarboxylic Acid [(2S,3S)-2-Amino-3-methylpentyl]-(4′-isopropoxybiphenyl-4-yl)amide], at human GPR88, it took 77 nM to reach a half-maximal effect (EC50).
On human GPR88 (EC50), `CC[C@H](C)[C@H](N)CN(C(=O)[C@@H]1C[C@H]1c1ccccn1)c1ccc(-c2ccc(C(F)(F)F)cc2)cc1` (relative stereo) [5b, (1R*,2R*)-2-(Pyridin-2-yl)cyclopropanecarboxylic Acid [(2S,3S)-2-Amino-3-methylpentyl]-(4′-trifluoromethylbiphenyl-4-yl)amide] showed an EC50 of 187 nM.
Same read-out and setting: under `CC[C@H](C)[C@H](N)CN(C(=O)[C@@H]1C[C@H]1c1ccccn1)c1ccc(-c2ccc(C(C)C)cc2)cc1` (relative stereo) [5d, (1R*,2R*)-2-(Pyridin-2-yl)cyclopropanecarboxylic Acid [(2S,3S)-2-Amino-3-methylpentyl]-(4′-isopropylbiphenyl-4-yl)amide] stands 260 nM.
As to `CCCc1ccc(-c2ccc(N(C[C@@H](N)[C@@H](C)CC)C(=O)[C@@H]3C[C@H]3c3ccccn3)cc2)cc1` (relative stereo) [compound 1, (1R*,2R*)-2-(pyridin-2-yl)-cyclopropanecarboxylic acid ((2S,3S)-2-amino-3-methylpentyl)-(4′-propylbiphenyl-4-yl)-amide], the P-glycoprotein substrate entry with P-glycoprotein was “P-glycoprotein substrate”.
For the compound `CC[C@H](C)[C@H](N)CN(C(=O)[C@@H]1C[C@H]1c1ccccn1)c1ccc(-c2ccc(C)cc2)cc1` (relative stereo) [5a, (1R*,2R*)-2-(Pyridin-2-yl)cyclopropanecarboxylic Acid [(2S,3S)-2-Amino-3-methylpentyl]-(4′-methylbiphenyl-4-yl)amide], the EC50 on human GPR88 (EC50) and on human GPR88 (EC50 (nM)) was 104 nM in each case.
As for `CC[C@H](C)[C@H](N)CN(C(=O)[C@@H]1C[C@H]1c1ccccn1)c1ccc(-c2ccc(C(N)=O)cc2)cc1` (relative stereo) [5z, (1R*,2R*)-2-(Pyridin-2-yl)cyclopropanecarboxylic Acid [(2S,3S)-2-Amino-3-methylpentyl]-(4′-carbamoylbiphenyl-4-yl)amide], the “agonist activity in words” value at human GPR88 (qualitative SAR statement, Lance cAMP assay) is “least activity in the series”.
`CC[C@H](C)[C@H](N)CN(C(=O)[C@@H]1C[C@H]1c1ccccn1)c1ccc(-c2ccc(C#N)cc2)cc1` (relative stereo) [5r, (1R*,2R*)-2-(Pyridin-2-yl)cyclopropanecarboxylic Acid [(2S,3S)-2-Amino-3-methylpentyl]-(4′-cyanobiphenyl-4-yl)amide] gave an EC50 on human GPR88 (EC50) of 197 nM.
Compound `CC[C@H](C)[C@H](N)CN(C(=O)[C@@H]1C[C@H]1c1ccccn1)c1ccc(-c2ccccc2)cc1` (relative stereo) [4d, (1R*,2R*)-2-(Pyridin-2-yl)cyclopropanecarboxylic Acid [(2S,3S)-2-Amino-3-methylpentyl]-(biphenyl-4-yl)amide] gave an EC50 on human GPR88 of 283 nM.
For the compound `CCCc1ccc(-c2ccc(N(C[C@@H](N)[C@@H](C)CC)C(=O)[C@@H]3C[C@H]3c3ccccn3)cc2)cc1` [compound 2], the EC50 in the series on GPR88 is […].
On to `CC[C@H](C)[C@H](N)CN(C(=O)[C@@H]1C[C@H]1c1ccccn1)c1ccc(-c2ccc(C3CCCCC3)cc2)cc1` (relative stereo) [5h, (1R*,2R*)-2-(Pyridin-2-yl)cyclopropanecarboxylic Acid [(2S,3S)-2-Amino-3-methylpentyl]-(4′-cyclohexylbiphenyl-4-yl)amide], for which the EC50 at human GPR88 (EC50) is 176 nM; at human GPR88 (pEC50), 174 nM.
Regarding `CCc1ccc(-c2ccc(N(C[C@@H](N)[C@@H](C)CC)C(=O)[C@@H]3C[C@H]3c3ccccn3)cc2)cc1` (relative stereo) [5c, (1R*,2R*)-2-(Pyridin-2-yl)cyclopropanecarboxylic Acid [(2S,3S)-2-Amino-3-methylpentyl]-(4′-ethylbiphenyl-4-yl)amide], the EC50 on human GPR88 (EC50) and at human GPR88 (EC50 (nM)) was 85 nM each time.
